Like-named read-outs stand apart in the source and are kept apart here.
Assays:
Assay type in all cases: cell-based, human
hiPSC-CMs = conditions: for Arrhythmia incidence by dose level: all sites and cell types tested; for Arrhythmia: one site; for Inotropic effect (impedance signal): hiPSC-CMs; for Average % change in EFP amplitude / FPDmax: with increasing concentrations; for FPDmax compared to pre-addition values: 30 min post compound addition, low risk compounds; for FPD prolongation: cell types other than CLS
[1] = system: CDI (iCell Cardiomyocytes^2, Cellular Dynamics International) hiPSC-CMs
[2] = system: AXG (Cor.4U, Ncardia) hiPSC-CMs
[3] = system: PLR (Pluricyte Cardiomyocytes, Ncardia) hiPSC-CMs
[4] = system: CLS (Cellartis Cardiomyocytes, Takara Bio Clontech) hiPSC-CMs
[5] = all sites and cell types, dose levels of Table 3

COc1cc(N)c(Cl)cc1C(=O)NC1CCN(CCCOc2ccc(F)cc2)CC1OC (stereo not drawn) [Cisapride]
Arrhythmia incidence by dose level (hiPSC-CMs; dose levels of Table 3): arrhythmia in most cases at dose 3, and almost all cases at dose 4

CC(C)N(CCC(C(N)=O)(c1ccccc1)c1ccccn1)C(C)C (stereo not drawn) [Disopyramide]
Arrhythmia (hiPSC-CMs; 10 and 100 μM): Arrhythmia was detected
Arrhythmia detection starting at (dose level) (hiPSC-CMs; [5]): dose 3
Inotropic effect (impedance signal) (hiPSC-CMs): negative inotropic effect
Average % change in impedance amplitude (hiPSC-CMs; with increasing concentration, all cell types at one site): decreased
Average % change in EFP amplitude (hiPSC-CMs; all cell types at one site): decreased
FPDmax (hiPSC-CMs; all cell types at one site): increased

CC/C(=C(\c1ccccc1)c1ccc(OCCN(C)C)cc1)c1ccccc1 [Tamoxifen]
Decrease of average % change in EFP amplitude ([1]; CDI, 3 μM, one site): ~ 40%
Decrease of average % change in FPDmax ([1]; CDI, 3 μM, one site): ~ 40%
Increase in beat rate ([1]; CDI, 3 μM, one site): ~ 40%
Changes in average impedance signals ([1]; CDI, 0.3, 0.9 and 3 μM): No significant changes

COc1ccc(CCN2CCC(Nc3nc4ccccc4n3Cc3ccc(F)cc3)CC2)cc1 [Astemizole]
Arrhythmia incidence by dose level (hiPSC-CMs; dose levels of Table 3): arrhythmia in most cases at dose 3, and almost all cases at dose 4

O=c1[nH]c2ccccc2n1C1CCN(CCCC(c2ccc(F)cc2)c2ccc(F)cc2)CC1 [Pimozide]
Arrhythmogenicity ([2]; site 4, AXG cells): not arrhythmogenic
Arrhythmia incidence by dose level (hiPSC-CMs; dose levels of Table 3): arrhythmia in most cases at dose 3, and almost all cases at dose 4

CCOC(=O)C1=C(C)NC(C)=C(C(=O)OC)C1c1cccc([N+](=O)[O-])c1 (stereo not drawn) [Nitrendipine]
FPDmax compared to pre-addition values (hiPSC-CMs): decrease

O=c1[nH]c2ccccc2n1CCCN1CCC(n2c(=O)[nH]c3cc(Cl)ccc32)CC1 [Domperidone]
Arrhythmia (hiPSC-CMs; 0.3, 3 μM): arrhythmia is marked
Arrhythmia incidence by dose level (hiPSC-CMs; dose levels of Table 3): arrhythmia in most cases at dose 3, and almost all cases at dose 4
Inotropic effect (impedance signal) (hiPSC-CMs): negative inotropic effect
Average % change in EFP amplitude (hiPSC-CMs; all cell types at one site): decreased
FPDmax (hiPSC-CMs; all cell types at one site): increased

Cc1nccn1CC1CCc2c(c3ccccc3n2C)C1=O (stereo not drawn) [Ondansetron]
Arrhythmia incidence by dose level (hiPSC-CMs; dose levels of Table 3): arrhythmia in most cases at dose 3, and almost all cases at dose 4

CC[C@H]1OC(=O)[C@H](C)[C@@H](O[C@H]2C[C@@](C)(OC)[C@@H](O)[C@H](C)O2)[C@H](C)[C@@H](O[C@@H]2O[C@H](C)C[C@H](N(C)C)[C@H]2O)[C@](C)(OC)C[C@@H](C)C(=O)[C@H](C)[C@@H](O)[C@]1(C)O [Clarithromycin]
Arrhythmia incidence by dose level (hiPSC-CMs; dose levels of Table 3): arrhythmia in most cases at dose 3, and almost all cases at dose 4

COc1cc2c(Nc3ccc(Br)cc3F)ncnc2cc1OCC1CCN(C)CC1 [Vandetanib]
Arrhythmia detection starting at (dose level) (hiPSC-CMs; [5]): dose 3

O=C(CCCN1CC=C(n2c(=O)[nH]c3ccccc32)CC1)c1ccc(F)cc1 [Droperidol]
Arrhythmic events ([3]; 0.3 μM): rolling EAD-like events
FPDmax ([3]; 0.3 μM): increase
Beat rate ([3]; post addition of 0.3 μM): decrease
Beat rate coefficient of variation ([3]; post addition of 0.3 μM): increase
Impedance amplitude ([3]; post addition of 0.3 μM): remains unchanged
Arrhythmia incidence by dose level (hiPSC-CMs; dose levels of Table 3): arrhythmia in most cases at dose 3, and almost all cases at dose 4

CC(C)(C)c1ccc(C(O)CCCN2CCC(C(O)(c3ccccc3)c3ccccc3)CC2)cc1 (stereo not drawn) [Terfenadine]
Number of experiments with quiescence (hiPSC-CMs; other experiments): 4
Number of experiments with arrhythmia (hiPSC-CMs; site 4, AXG and site 4, CLS): 2

CCOC(=O)N1CCC(=C2c3ccc(Cl)cc3CCc3cccnc32)CC1 [Loratadine]
FPDmax compared to pre-addition values (hiPSC-CMs): not a significant change

COc1ccc([C@@H]2Sc3ccccc3N(CCN(C)C)C(=O)[C@@H]2OC(C)=O)cc1 [Diltiazem]
FPDmax compared to pre-addition values (hiPSC-CMs): decrease

C=C[C@H]1C[N@@]2CC[C@H]1C[C@@H]2[C@@H](O)c1ccnc2ccc(OC)cc12 [Quinidine]
Arrhythmia detection starting at (dose level) (hiPSC-CMs; [5]): dose 2
Incidence of FPDmax>10% or > 30% started at (dose level) (hiPSC-CMs; [5]): dose 1

COC(=O)C1=C(C)NC(C)=C(C(=O)OC)C1c1ccccc1[N+](=O)[O-] [Nifedipine]
Chronic effect on cell viability (base impedance) ([2]; AXG, recorded over 24 h): time and concentration-dependent reduction of cell viability
FPDmax compared to pre-addition values (hiPSC-CMs): decrease
Inotropic effect (impedance signal) (hiPSC-CMs): negative inotropic effect

CN(C)CCCN1c2ccccc2Sc2ccc(Cl)cc21 [Chlorpromazine]
Arrhythmic events (hiPSC-CMs; independent of the cell type or site): did not induce arrhythmic events

Cc1nc2n(c(=O)c1CCN1CCC(c3noc4cc(F)ccc34)CC1)CCCC2 [Risperidone]
Change in the FPD ([4]; CLS cells): no significant change
Change in the FPD ([2]; AXG cells): no significant change
Change in the FPD ([1]; CDI cells): > 10%

CN(CCOc1ccc(NS(C)(=O)=O)cc1)CCc1ccc(NS(C)(=O)=O)cc1 [dofetilide]
FPD prolongation upon application ([4]; CLS hiPSC-CMs, 0.5-10 nM): did not exhibit an expected FPD prolongation
FPD prolongation (hiPSC-CMs; 0.5 nM): approx. 10%
FPD prolongation (hiPSC-CMs; 10 nM, arrhythmia present): ~100%
Effect on FPD and arrhythmia (hiPSC-CMs; wells treated with 5 nM and 10 nM): prolongation of FPD and arrhythmia

CC(C)NCC(O)c1ccc(NS(C)(=O)=O)cc1 (stereo not drawn) [D,l Sotalol]
Arrhythmic events ([1]; CDI, 10 μM): EAD-like events and ectopic beats
BRCoV ([1]; CDI, post addition of 10 μM): large increase
Beat rate ([1]; CDI, post addition of 10 μM): decrease
Impedance amplitude ([1]; CDI, post addition of 10 μM): remains unchanged
Arrhythmia detection starting at (dose level) (hiPSC-CMs; [5]): dose 3

Reference: article PMC6146285 (Journal of pharmacological and toxicological methods, 2018)
